The text below walks through data of US7414061B2, “Aryl-isoxazol-4-yl-imidazole derivatives” (Hoffmann-La Roche Inc., priority 2005, dated 2008).

The target in the experiment is T1, GABA A receptor α5β3γ2 (hα5) (Homo sapiens, UniProt P18507+P31644).
T1 construct: expressed in transfected cells; host or cells: HEK293 (transiently transfected), membrane preparation
The experiment in a line: [3H]flumazenil competition binding assay, human GABA A α5β3γ2. Particulars: displacement of [3H]flumazenil (0.5 nM) from HEK293 cell membranes expressing α5β3γ2; means of two determinations; read-out: Ki[nM] hα5. As for the experimental part: The affinity of compounds at GABA A receptor subtypes was measured by competition for [3H]flumazenil (85 Ci/mmol; Roche) binding to HEK293 cells expressing rat (stably transfected) or human (transiently transfected) receptors of composition α1β3γ2, α2β3γ2, α3β3γ2 and α5β3γ2.
Cell pellets were suspended in Krebs-tris buffer (4.8 mM KCl, 1.2 mM CaCl2, 1.2 mM MgCl2, 120 mM NaCl, 15 mM Tris; pH 7.5; binding assay buffer), homogenized by polytron for ca. 20 sec on ice and centrifuged for 60 min at 4° C. (50000 g; Sorvall, rotor: SM24=20000 rpm). The cell pellets were resuspended in Krebs-tris buffer and homogenized by polytron for ca. 15 sec on ice. Protein was measured (Bradford method, Bio-Rad) and aliquots of 1 mL were prepared and stored at −80° C.
Radioligand binding assays were carried out in a volume of […] (96-well plates) which contained […] of cell membranes, [3H]flumazenil at a concentration of 1 nM for α1, α2, α3 subunits and 0.5 nM for α5 subunits and the test compound in the range of […]. Nonspecific binding was defined by 10^−5 M diazepam and typically represented less than 5% of the total binding. Assays were incubated to equilibrium for 1 hour at 4° C. and harvested onto GF/C uni-filters (Packard) by filtration using a Packard harvester and washing with ice-cold wash buffer (50 mM Tris; pH 7.5). After drying, filter-retained radioactivity was detected by liquid scintillation counting. Ki values were calculated using Excel-Fit (Microsoft) and are the means of two determinations.
On the technique in general: In a radioligand displacement assay an active substance lowers the binding of a labelled ligand.
The term Ki denotes the dissociation constant of the complex between target and ligand, obtained from inhibition or displacement. Take `Cc1onc(-c2ccccc2)c1-c1cn(-c2ccc([N+](=O)[O-])cc2)c(COCc2ccccn2)n1` [Example 161, 2-[4-(5-Methyl-3-phenyl-isoxazol-4-yl)-1-(4-nitro-phenyl)-1H-imidazol-2-ylmethoxymethyl]-pyridine]: the inhibition constant (Ki) came to 16.3 nM.
With `Cc1onc(-c2ccccc2)c1-c1cn(-c2ccccn2)cn1` [Example 32, 2-[4-(5-Methyl-3-phenyl-isoxazol-4-yl)-imidazol-1-yl]-pyridine], the Ki worked out at 19.3 nM.
`Cc1onc(-c2ccccc2)c1-c1cn(-c2ccc(C(=O)NCc3cccnc3)cc2)cn1` [Example 78, 4-[4-(5-Methyl-3-phenyl-isoxazol-4-yl)-imidazol-1-yl]-N-pyridin-3-ylmethyl-benzamide]: the Ki was 12.8 nM.
The same measure for `CC(=O)c1ccc(-n2cnc(-c3c(-c4ccccc4)noc3C3CC3)c2)cc1` [Example 135, 1-{4-[4-(5-Cyclopropyl-3-phenyl-isoxazol-4-yl)-imidazol-1-yl]-phenyl}-ethanone]: 1.64 nM; for `Cc1onc(-c2ccccc2)c1-c1cn(-c2cccc(Br)c2)cn1` [Example 7, 4-[1-(3-Bromo-phenyl)-1H-imidazol-4-yl]-5-methyl-3-phenyl-isoxazole]: 30.9 nM; for “4-{4-[3-(3-Fluoro-phenyl)-5-methyl-isoxazol-4-yl]-imidazol-1-yl}-N-[2-(1H-imidazol-4-yl)-ethyl]-benzamide [Example 104]”: 31.5 nM.
For `Cc1onc(-c2ccccc2)c1-c1cn(-c2ccc([N+](=O)[O-])cc2)c(COCc2ccccc2)n1` [Example 63, 4-[2-Benzyloxymethyl-1-(4-nitro-phenyl)-1H-imidazol-4-yl]-5-methyl-3-phenyl-isoxazole], the Ki worked out at 14.4 nM.
With `Cc1onc(-c2ccccc2)c1-c1cn(-c2ccc(C(=O)NC3CC3)cc2)cn1` [Example 74, N-Cyclopropyl-4-[4-(5-methyl-3-phenyl-isoxazol-4-yl)-imidazol-1-yl]-benzamide], the Ki was 5.1 nM.
For `Cc1onc(-c2ccccc2)c1-c1cn(-c2ccc([N+](=O)[O-])cc2)c(COCc2cccc(F)c2)n1` [Example 158, 4-[2-(3-Fluoro-benzyloxymethyl)-1-(4-nitro-phenyl)-1H-imidazol-4-yl]-5-methyl-3-phenyl-isoxazole], the Ki is 17 nM.
For the compound `Cc1onc(-c2ccccc2)c1-c1cn(-c2cccc(Cl)c2)cn1` [Example 5, 4-[1-(3-Chloro-phenyl)-1H-imidazol-4-yl]-5-methyl-3-phenyl-isoxazole], the Ki turned out to be 29.1 nM.
The same measure for `Cc1onc(-c2ccc(F)cc2)c1-c1cn(-c2ccc([N+](=O)[O-])cc2)cn1` [Example 47, 3-(4-Fluoro-phenyl)-5-methyl-4-[1-(4-nitro-phenyl)-1H-imidazol-4-yl]-isoxazole]: 16.6 nM; for `CC(=O)c1ccc(-n2cnc(-c3c(-c4ccc(F)cc4)noc3CO)c2)cc1` [Example 140, 1-(4-{4-[3-(4-Fluoro-phenyl)-5-hydroxymethyl-isoxazol-4-yl]-imidazol-1-yl}-phenyl)-ethanone]: 9.8 nM; for `Cc1ccc(-n2cnc(-c3c(-c4ccc(F)cc4)noc3C)c2)cc1[N+](=O)[O-]` [Example 131, 3-(4-Fluoro-phenyl)-5-methyl-4-[1-(4-methyl-3-nitro-phenyl)-1H-imidazol-4-yl]-isoxazole]: 21.5 nM.
The same measure for `Cc1onc(-c2ccc(Br)cc2)c1-c1cn(-c2ccc([N+](=O)[O-])cc2)cn1` [Example 50, 3-(4-Bromo-phenyl)-5-methyl-4-[1-(4-nitro-phenyl)-1H-imidazol-4-yl]-isoxazole]: 21.6 nM.
The same measure for `Cc1onc(-c2ccccc2)c1-c1cn(-c2ccc(F)cc2)cn1` [Example 3, 4-[1-(4-Fluoro-phenyl)-1H-imidazol-4-yl]-5-methyl-3-phenyl-isoxazole]: 29.6 nM.
Turning to `Cc1onc(-c2ccccc2)c1-c1cn(-c2ccc([N+](=O)[O-])cc2)c(COCc2cccnc2)n1` [Example 163, 3-[4-(5-Methyl-3-phenyl-isoxazol-4-yl)-1-(4-nitro-phenyl)-1H-imidazol-2-ylmethoxymethyl]-pyridine], the Ki was found to be 9.5 nM.
The same measure for `CC(=O)c1ccc(-n2cnc(-c3c(-c4ccccc4F)noc3C)c2)cc1` [Example 36, 1-(4-{4-[3-(2-Fluoro-phenyl)-5-methyl-isoxazol-4-yl]-imidazol-1-yl}-phenyl)-ethanone]: 7.8 nM.
On to `Cc1onc(-c2ccc(F)cc2)c1-c1cn(-c2ncccn2)cn1` [Example 48, 2-{4-[3-(4-Fluoro-phenyl)-5-methyl-isoxazol-4-yl]-imidazol-1-yl}-pyrimidine], for which the Ki was 17.6 nM.
Turning to `CCCc1ccc(-n2cnc(-c3c(-c4ccccc4)noc3C)c2)cc1` [Example 9, 5-Methyl-3-phenyl-4-[1-(4-propyl-phenyl)-1H-imidazol-4-yl]-isoxazole], the Ki stood at 25.5 nM.
With `Cc1onc(-c2ccccc2)c1-c1cn(-c2ccc([N+](=O)[O-])cc2)c(COCc2ccc(C(F)(F)F)nc2)n1` [Example 164, 5-[4-(5-Methyl-3-phenyl-isoxazol-4-yl)-1-(4-nitro-phenyl)-1H-imidazol-2-ylmethoxymethyl]-2-trifluoromethyl-pyridine], the Ki came to 27 nM.
Turning to `Cc1onc(-c2ccccc2)c1-c1cn(-c2ccc(C(F)(F)F)cc2)c(COCc2ccccc2)n1` [Example 64, 4-[2-Benzyloxymethyl-1-(4-trifluoromethyl-phenyl)-1H-imidazol-4-yl]-5-methyl-3-phenyl-isoxazole], the Ki was determined as 14.7 nM.
For `Cc1onc(-c2ccccc2)c1-c1cn(-c2cc(F)cc(F)c2)cn1` [Example 24, 4-[1-(3,5-Difluoro-phenyl)-1H-imidazol-4-yl]-5-methyl-3-phenyl-isoxazole], the Ki was 29 nM.
As to `CC(=O)c1ccc(-n2cc(-c3c(-c4ccccc4)noc3C)nc2COCc2ccccc2)cc1` [Example 62, 1-{4-[2-Benzyloxymethyl-4-(5-methyl-3-phenyl-isoxazol-4-yl)-imidazol-1-yl]-phenyl}-ethanone], the Ki was 5.4 nM.
With `Cc1onc(-c2cccc(F)c2)c1-c1cn(-c2ccc(C(=O)NCc3ccccn3)cc2)cn1` [Example 106, 4-{4-[3-(3-Fluoro-phenyl)-5-methyl-isoxazol-4-yl]-imidazol-1-yl}-N-pyridin-2-ylmethyl-benzamide], the Ki was determined as 32.1 nM.
Consider `Cc1onc(-c2cccc(F)c2)c1-c1cn(-c2ccc(C(=O)NCCO)cc2)cn1` [Example 101, 4-{4-[3-(3-Fluoro-phenyl)-5-methyl-isoxazol-4-yl]-imidazol-1-yl}-N-(2-hydroxy-ethyl)-benzamide], for which the Ki amounted to 27 nM.
The same measure for `CSc1ccc(-n2cnc(-c3c(-c4ccccc4)noc3C)c2)cc1` [Example 21, 5-Methyl-4-[1-(4-methylsulfanyl-phenyl)-1H-imidazol-4-yl]-3-phenyl-isoxazole]: 31.5 nM.
`Cc1onc(-c2ccc(F)cc2)c1-c1cn(-c2cccc(C#N)c2)cn1` [Example 122, 3-{4-[3-(4-Fluoro-phenyl)-5-methyl-isoxazol-4-yl]-imidazol-1-yl}-benzonitrile]: the Ki is 25.6 nM.
For the compound `Cc1onc(-c2ccccc2)c1-c1cn(-c2ncccn2)cn1` [Example 33, 2-[4-(5-Methyl-3-phenyl-isoxazol-4-yl)-imidazol-1-yl]-pyrimidine], the Ki was 15 nM.
